Data on 28 compounds can be found in patent publication US20240279205A1, “NOVEL BENZIMIDAZOLE DERIVATIVE” (Carna Biosciences, Inc., priority 2020, published 2024).

Counter-ions that a name gives are not always drawn.

The subject of test [1] is STING activation (IFN-β production in THP-1 cells). Briefly: Human IFN-β production inhibition test by cGAMP stimulation in THP-1 cells. Format: cell-based. Also noted: IFN-β bioinhibitory activity: scale not given here. Particulars: 2'3'-cGAMP transfection, 18 hours, IFN-β ELISA; for IC50: Homo sapiens, read-out: IFN-β bioinhibitory activity. Summed up:
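PMA-primed (100 nM, overnight) THP-1 cells pretreated 1 h with compound at 0.001 to 1 μM (0.1% DMSO), then transfected with 0.12 μg/well 2′3′-cGAMP and cultured 18 hours. Supernatant IFN-β measured by ELISA; IC50 by regression against log concentration, normalised to cGAMP-only (100%) and unstimulated (0%) controls.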
(In an ELISA, binding on a coated surface is turned into a signal by an enzyme label.)

The target of the next test is T1, human STING (hSTING) (Homo sapiens, UniProt Q86WV6).
T1 construct: host or cells: HEK-Blue ISG cells (HEK293-derived SEAP reporter line)
Briefly: Inhibition test of intracellular human STING (hSTING) pathway using SEAP reporter cells (HEK-Blue ISG), stimulation with Compound 3. Further details: hSTING inhibitory activity: scale not given here. Particulars: Compound 3 10 nM stimulation, 21 hours. In kind it is cell-based. Summed up:
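IC50 derived by regressing inhibition rate against log compound concentration (0.1 to 10 μM final, added 1 h before agonist), with 0% and 100% set by wells without and with 10 nM Compound 3. SEAP colour reaction read after 21 h stimulation of HEK-Blue ISG reporter cells.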

T1 sequence (Q86WV6 whole entry H232R): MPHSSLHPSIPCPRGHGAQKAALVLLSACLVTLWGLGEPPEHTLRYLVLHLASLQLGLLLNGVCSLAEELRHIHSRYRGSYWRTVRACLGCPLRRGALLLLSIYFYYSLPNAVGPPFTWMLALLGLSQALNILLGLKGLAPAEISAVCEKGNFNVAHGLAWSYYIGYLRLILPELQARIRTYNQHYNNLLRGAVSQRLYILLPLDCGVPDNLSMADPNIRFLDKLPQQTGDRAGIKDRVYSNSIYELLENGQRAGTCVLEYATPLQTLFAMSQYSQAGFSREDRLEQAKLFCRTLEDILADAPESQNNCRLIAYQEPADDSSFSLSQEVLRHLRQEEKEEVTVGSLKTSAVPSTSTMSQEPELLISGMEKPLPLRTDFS

For `CN(C)c1ccc(Oc2ccc3[nH]c(Nc4c[nH]c5ccc(Br)nc45)nc3c2)cc1` [Embodiment 64, N-(5-bromo-1H-pyrrolo[3,2-b]pyridin-3-yl)-5-[4-(dimethylamino)phenoxy]-1H-benzo[d]imidazol-2-amine], the IC50 in test [1] was in the range of 0.1 to 1 µM. The hSTING inhibitory activity result on human STING (hSTING) is “* *”.
For `COCC#Cc1ccc2[nH]c(Nc3c[nH]c4ccc(Cl)nc34)nc2c1` [Embodiment 145, N-(5-Chloro-1H-pyrrolo[3,2-b]pyridin-3-yl)-5(3-methoxyprop-1-yn-1-yl)-1H-benzo[d]imidazole-2-amine], in that order: 0.1 to 1 µM and “* *”.
Turning to `CN(C)n1c(Nc2c[nH]c3ccc(Cl)cc23)nc2cc(C(F)(F)F)cc(F)c21` [Embodiment 237, N2-(5-Chloro-1H-indol-3-yl)-7-fluoro-N1,N1-dimethyl-5-(trifluoromethyl)-1H-benzo[d] imidazole-1,2-diamine], in test [1], the IFN-β bioinhibitory activity entry is recorded as “* *”. Besides, the hSTING inhibitory activity entry at human STING (hSTING) is on record as “* * *”.
For `CN(C)c1cccc(Oc2ccc3[nH]c(Nc4c[nH]c5ccc(Br)cc45)nc3c2)c1` [Example 26, N-(5-bromo-1H-indol-3-yl)-5-[3-(dimethylamino)phenoxy]-1H-benzo[d]imidazol-2-amine], in that order: “* *” and “* *”.
Regarding `FC(F)(F)c1ccc2[nH]c(Nc3c[nH]c4ccc(Br)cc34)nc2c1` [Example 8, N-(5-bromo-1H-indol-3-yl)-5-(trifluoromethyl)-1H-benzo[d]imidazol-2-amine], the IFN-β bioinhibitory activity entry in test [1] was “* *”. The hSTING inhibitory activity entry at human STING (hSTING) is “* *”.
Consider `C=CCn1c(Nc2c[nH]c3ccc(Cl)cc23)nc2cc(C(F)(F)F)ccc21` [Embodiment 213, 1-allyl-N-(5-chloro-1H-indol-3-yl)-5-(trifluoromethyl)-1H-benzo[d]imidazol-2-amine], for which the IFN-β bioinhibitory activity entry in test [1] is “* *”. The hSTING inhibitory activity entry at human STING (hSTING) is “* * *”.
In the case of `CCCn1c(Nc2c[nH]c3ccc(Cl)cc23)nc2cc(C(F)(F)F)ccc21` [Embodiment 212, N-(5-Chloro-1H-indol-3-yl)-1-propyl-5-(trifluoromethyl)-1H-benzo[d]imidazo-2-amine], the IFN-β bioinhibitory activity entry in test [1] is reported as “* * *”. Besides, on human STING (hSTING), the hSTING inhibitory activity result is recorded as “* * *”.
`Fc1cc(C(F)(F)F)cc2nc(Nc3c[nH]c4ccc(Cl)cc34)[nH]c12` [Embodiment 267, N-(5-Chloro-1H-indol-3-yl)-7-fluoro-5-(trifluoromethyl)-1H-benzo [d]imidazol-2-amine]: the IC50 in test [1] fell in the range of 0.1 to 1 µM. Moreover, the hSTING inhibitory activity entry at human STING (hSTING) was “* *”.
With `Fc1cnc2[nH]cc(Nc3nc4cc(Oc5ccccc5)ccc4[nH]3)c2c1` [Embodiment 72, N-(5-fluoro-1H-pyrrolo[2,3-b]pyridin-3-yl)-5-phenoxy-1H-benzo [d]imidazol-2-amine formate], the IC50 in test [1] is 0.1 to 1 µM. At human STING (hSTING), the hSTING inhibitory activity entry was “* *”.
As to `CCn1c(Nc2c[nH]c3ccc(Cl)cc23)nc2cc(C(F)(F)F)ccc21` [Embodiment 217, N-(5-Chloro-1H-indol-3-yl)-1-ethyl-5-(trifluoromethyl)-1H-benzo[d]imidazol-2-amine], the IFN-β bioinhibitory activity entry in test [1] is given as “* *”. Further, the hSTING inhibitory activity entry at human STING (hSTING) is “* * *”.
The matching figures for `COCCn1c(Nc2c[nH]c3ccc(Cl)cc23)nc2cc(C(F)(F)F)ccc21` [Embodiment 222, N-(5-Chloro-1H-indol-3-yl)-1-(2-methoxyethyl)-5-(trifluoromethyl)-1H-benzo[d]imidazol-2-amine]: “* *” and “* * *”.
Turning to `Nn1c(Nc2c[nH]c3ccc(Cl)cc23)nc2cc(C(F)(F)F)cc(F)c21` [Embodiment 269, N2-(5-Chloro-1H-indol-3-yl)-7-fluoro-5-(trifluoromethyl)-1H-benzo[d]imidazole-1,2-diamine], in test [1], the IFN-β bioinhibitory activity result is given as “* *”. For the same compound, on human STING (hSTING), the hSTING inhibitory activity entry is “* * *”.
For `CC#CCn1c(Nc2c[nH]c3ccc(Cl)cc23)nc2cc(C(F)(F)F)ccc21` [Embodiment 228, 1-(But-2-yn-1-yl)-N-(5-rolo-1H-indol-3-yl)-5-(trifluoromethyl)-1H-benzo[d]imidazol-2-amine], in that order: “* *” and “* *”.
As to `N#Cc1ccc2[nH]cc(Nc3nc4cc(Oc5ccccc5)ccc4[nH]3)c2n1` [Embodiment 130, 3-[(5-phenoxy-1H-benzo[d]imidazol-2-yl)amino]-1H-pyrrolo[3,2-b] pyridine-5-carbonitrile], the IC50 in test [1] is ≥ 1 µM. Besides, the hSTING inhibitory activity entry at human STING (hSTING) was “* *”.
`C#Cc1ccc2[nH]c(Nc3c[nH]c4ccc(Cl)nc34)nc2c1` [Embodiment 133, N-(5-Chloro-1H-pyrrolo[3,2-b]pyridin-3-yl)-5-ethynyl-1H-benzo[d] imidazol-2-amine formate]: in test [1], the IFN-β bioinhibitory activity entry was “* * *”. Moreover, the hSTING inhibitory activity entry at human STING (hSTING) is “* *”.
For `CNn1c(Nc2c[nH]c3ccc(Cl)cc23)nc2cc(C(F)(F)F)ccc21.Cl` [Embodiment 255, N2-(5-Chloro-1H-indol-3-yl)-N1-methyl-5-(trifluoromethyl)-1H-benzo[d]imidazole-1,2-diamine hydrochloride], in that order: “* *” and “* * *”.
For `Brc1ccc2[nH]c(Nc3c[nH]c4ccc(Br)cc34)nc2c1` [Example 7, 5-bromo-N-(5-bromo-1H-indol-3-yl)-1H-benzo[d]imidazol-2-amine], in that order: “* *” and “* * *”.
As to `Clc1cnc2[nH]cc(Nc3nc4cc(Oc5ccccc5)ccc4[nH]3)c2c1` [Embodiment 73, N-(5-Chloro-1H-pyrrolo[2,3-b]pyridin-3-yl)-5-phenoxy-1H-benzo[d]imidazol-2-amine formate], in test [1], the IC50 was 0.1 to 1 µM. Also, the hSTING inhibitory activity result on human STING (hSTING) was “* * *”.
The matching figures for `Cn1c(Nc2c[nH]c3ccc(Cl)nc23)nc2ccc(Oc3ccccc3)cc21` [Embodiment 44, N-(5-chloro-1H-pyrrolo[3,2-b]pyridin-3-yl)-1-methyl-6-phenoxy-1H-benzo[d]imidazol-2-amine]: 0.1 to 1 µM and “* *”.
Regarding `CN(C)n1c(Nc2c[nH]c3ccc(Cl)cc23)nc2ccc(C(F)(F)F)cc21` [Embodiment 266, N2-(5-Chloro-1H-indol-3-yl)-N1, N1-dimethyl-6-(trifluoromethyl)-1H-benzo[d]imidazole-1,2-diamine], in test [1], the IC50 lay in the range of 0.1 to 1 µM. Besides, on human STING (hSTING), the hSTING inhibitory activity entry was “* *”.
Consider `Clc1ccc2[nH]cc(Nc3nc4cc(C5CC5)ccc4[nH]3)c2n1` [Embodiment 129, N-(5-Chloro-1H-pyrrolo[3,2-b]pyridin-3-yl)-5-cyclopropyl-1H-benzo[d]imidazol-2-amine], for which, in test [1], the IFN-β bioinhibitory activity entry was “* *”. Moreover, the hSTING inhibitory activity result on human STING (hSTING) is “* *”.
As for `Clc1ccc2[nH]c(Nc3c[nH]c4ccc(Br)cc34)nc2c1` [Example 4, N-(5-bromo-1H-indol-3-yl)-5-chloro-1H-benzo[d]imidazol-2-amine], the IFN-β bioinhibitory activity result in test [1] is listed as “* *”. Further, the hSTING inhibitory activity result on human STING (hSTING) is “* * *”.
With `Fc1cc(F)c2nc(Nc3c[nH]c4ccc(Cl)nc34)[nH]c2c1` [Embodiment 86, N-(5-Chloro-1H-pyrrolo[3,2-b]pyridin-3-yl)-4,6-difluoro-1H-benzo[d]imidazol-2-amine formate], in test [1], the IC50 was ≥ 1 µM. The hSTING inhibitory activity result on human STING (hSTING) is reported as “* *”.
For `C=Cc1ccc2[nH]cc(Nc3nc4cc(Oc5ccccc5)ccc4[nH]3)c2n1` [Embodiment 101, 5-phenoxy-N-(5-vinyl-1H-pyrrolo [3,2-b]pyridin-3-yl)-1H-benzo [d]imidazol-2-amine], the IFN-β bioinhibitory activity entry in test [1] is given as “* *”. Moreover, on human STING (hSTING), the hSTING inhibitory activity result is listed as “* * *”.
Regarding `Clc1ccc2[nH]cc(Nc3nc4cc(C#CC5CC5)ccc4[nH]3)c2n1` [Embodiment 125, N-(5-Chloro-1H-pyrrolo[3,2-b]pyridin-3-yl)-5-(cyclopropylethynyl)-1H-benzo[d]imidazol-2-amine], in test [1], the IC50 fell in the range of 0.1 to 1 µM. Moreover, on human STING (hSTING), the hSTING inhibitory activity result was “* *”.
On to `CN(C)n1c(Nc2c[nH]c3ccc(Cl)cc23)nc2cc(C(F)(F)F)ccc21` [Embodiment 216, N2-(5-Chloro-1H-indol-3-yl)-N1,N1-dimethyl-5-(trifluoromethyl)-1H-benzo[d]imidazole-1,2-diamine], for which the IFN-β bioinhibitory activity entry in test [1] is given as “* * *”. Further, the hSTING inhibitory activity entry at human STING (hSTING) is on record as “* * *”.
Consider `FC(F)(F)c1ccc2[nH]c(Nc3c[nH]c4ccc(Cl)cc34)nc2c1` [Embodiment 268, N-(5-Chloro-1H-indol-3-yl)-5-(trifluoromethyl)-1H-benzo[d]imidazol-2-amine], for which the IFN-β bioinhibitory activity entry in test [1] is reported as “* *”. Also, the hSTING inhibitory activity entry at human STING (hSTING) is “* *”.
As for `CC(C)=Cc1ccc2[nH]c(Nc3c[nH]c4ccc(Cl)nc34)nc2c1` [Embodiment 128, N-(5-chloro-1H-pyrrolo[3,2-b]pyridin-3-yl)-5-(2-methylprop-1-en-1-yl)-1H-benzo[d]imidazole-2-amine], the IFN-β bioinhibitory activity result in test [1] is reported as “* * *”. Moreover, on human STING (hSTING), the hSTING inhibitory activity entry is reported as “* *”.
